This note sets out measurements from patent publication US20150023883A1, “Antiperspirant Spray Devices and Compositions” (The Procter & Gamble Company, priority 2013, published 2015).

The text on this data set:
Solubility may be determined by measuring the amount of light transmittance (a light transmittance value) through a simple mixture of the non-volatile silicone fluid and liquid activation enhancer at the same weight/weight concentrations as in a final antiperspirant composition.
Solubility of a liquid activation enhancer in a non-volatile silicone may be determined by measuring the amount of light transmittance (light transmittance value) through a simple mixture of the non-volatile silicone fluid and liquid activation enhancer at the same weight/weight concentrations as in a final antiperspirant composition.
The Spectronic Genesys 10 Vis utilizes a tungsten-halogen light source and has a spectral bandwidth of 5 nm, a wavelength range of 325 to 1100 nm, accuracy of ±1 nm and a repeatability of ±0.5 nm. Readouts include absorbance, transmittance and concentration. The spectrophotometer is set to 640 nm wavelength and the percent transmittance mode/readout. Polystyrene spectrometer cuvettes having a 1 cm optical light path and transmittance between ˜340 nm and ˜900 nm are used. One suitable example of a spectrometer cuvette is available from VWR International LLC under Catalog #97000-584 having a 2.5 to 4.5 ml capacity. The spectrophotometer is calibrated according to the manufacturer's instructions using a reference cuvette and composition comprised of just the non-volatile silicone fluid of interest. For example, if the test composition comprises 50 centistoke dimethicone and 15% w/w of isopropyl myristate, then the spectrometer is calibrated using a cuvette containing just 50 centistoke dimethicone. Sample cuvettes are filled sufficiently with a test composition of a non-volatile silicone fluid and liquid activation enhancer so that the light path of the spectrophotometer passes through the test composition in the cuvette. The sample cuvettes are shaken well just prior to taking a light transmittance reading.
Take `CCCCCCCCCCCCCCCCCC(=O)OCCCC` [butyl stearate]: the light transmittance value entry was “about 100%”.

Consider `CCCCCCCCCCCCCC(C)C` [isohexadecane], for which the light transmittance value entry is “about 100%” and the “solubility in 50 centistoke dimethicone” value is on record as “soluble”.

As for `CCCCCCCCCCCCCC(=O)OC(C)C` [isopropyl myristate], the light transmittance value entry is “about 101%”.

With `CCCCCCCCCCCCCCCC(=O)OC(C)C` [isopropyl palmitate], the light transmittance value result is listed as “about 101%”.

Consider `CCCCCCCCCCC(CO)CCCCCCCC` (centres unmarked) [octyldodecanol], for which the “solubility in 50 centistoke dimethicone” value was “soluble in the 50 centistoke dimethicone at some (lower) concentrations”.

In the case of PPG-14 butyl ether, the “solubility in 50 centistoke dimethicone” value was “insoluble”.

With mineral oil, the “solubility in 50 centistoke dimethicone” value was “soluble in 50 centistoke dimethicone at some (lower) concentrations”.
